# Test results: ChEMBL document CHEMBL1131597, “Discovery and development of the novel potent orally active thrombin inhibitor N-(9-hydroxy-9-fluorenecarboxy)prolyl trans-4-aminocyclohexylmethyl amide (L-372,460): coapplication of structure-based design and rapid multiple analogue synthesis on solid support” (J Med Chem, 1998)
# What was measured:
# Prothrombin [1] = molecular target: T1, Prothrombin (Homo sapiens, UniProt P00734); experiment: Inhibition of thrombin-catalyzed hydrolysis of a standard substrate
# Prothrombin [2] = molecular target: T1, Prothrombin; experiment: Binding affinity towards thrombin was determined
# Serine protease 1 = Serine protease 1 (Homo sapiens, UniProt P07477); experiment: Binding affinity towards trypsin was determined
# Sequence of Serine protease 1 (P07477 whole entry): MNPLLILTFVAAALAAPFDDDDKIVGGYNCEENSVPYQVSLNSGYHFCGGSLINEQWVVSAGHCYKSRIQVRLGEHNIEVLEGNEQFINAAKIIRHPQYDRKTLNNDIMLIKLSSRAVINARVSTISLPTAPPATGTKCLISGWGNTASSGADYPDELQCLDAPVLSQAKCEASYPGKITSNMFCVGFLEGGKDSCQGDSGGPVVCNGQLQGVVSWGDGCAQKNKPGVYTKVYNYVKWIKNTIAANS
SMILES,IC50 (Prothrombin [1]) [nM],Ki (Prothrombin [2]) [nM],Ki (Serine protease 1) [nM]
NC1CCC(CNC(=O)[C@@H]2CCCN2C(=O)C2COc3ccccc3O2)CC1 (some centres not stated),100,75,–
COc1ccccc1CCC(=O)N1CCC[C@H]1C(=O)NCC1CCC(N)CC1 (some centres not stated),230,–,–
CCCCC(CC(=O)N1CCC[C@H]1C(=O)NCC1CCC(N)CC1)c1ccccc1 (some centres not stated),5,–,–
COc1cc(C(O)C(=O)N2CCC[C@H]2C(=O)NCC2CCC(N)CC2)ccc1O (some centres not stated),11,2.5,–
NC1CCC(CNC(=O)[C@@H]2CCCN2C(=O)C(Cc2ccc(O)cc2)c2ccccc2)CC1 (some centres not stated),10,2.5,–
N[C@H]1CC[C@H](CNC(=O)[C@@H]2CCCN2C(=O)C2(O)c3ccccc3-c3ccccc32)CC1,4,–,860
N#C/C(=C\c1ccccc1)C(=O)N1CCC[C@H]1C(=O)NCC1CCC(N)CC1 (some centres not stated),140,–,–
NC1CCC(CNC(=O)[C@@H]2CCCN2C(=O)C2CC2(c2ccccc2)c2ccccc2)CC1 (some centres not stated),190,–,–
CN1C(=O)C[C@@H](c2cccnc2)[C@@H]1C(=O)N1CCC[C@H]1C(=O)NCC1CCC(N)CC1 (some centres not stated),60,–,–
NC1CCC(CNC(=O)[C@@H]2CCCN2C(=O)C23CC4CC(CC(C4)C2)C3)CC1 (some centres not stated),120,–,–
NC1CCC(CNC(=O)[C@@H]2CCCN2C(=O)CC2c3ccccc3-c3ccccc32)CC1 (some centres not stated),106,–,–
NC1CCC(CNC(=O)[C@@H]2CCCN2C(=O)C(Cc2ccccc2)c2ccccc2)CC1 (some centres not stated),57,–,–
NC1CCC(CNC(=O)[C@@H]2CCCN2C(=O)C2c3ccccc3-c3ccccc32)CC1 (some centres not stated),380,–,–
NC1CCC(CNC(=O)[C@@H]2CCCN2C(=O)C2CCc3ccccc3C2)CC1 (some centres not stated),910,–,–
CN[C@H](Cc1ccccc1)C(=O)N1CCC[C@H]1C(=O)NC[C@H]1CC[C@H](N)CC1,6,4.9,–
COc1cc(CC(=O)N2CCC[C@H]2C(=O)NCC2CCC(N)CC2)cc(OC)c1OC (some centres not stated),50,–,–
NC1CCC(CNC(=O)[C@@H]2CCCN2C(=O)C2CC(=O)N3CCc4ccccc4C23)CC1 (some centres not stated),90,–,–
